Assay results from patent publication US20230255953A1, “USE OF ROLUPERIDONE IN PREVENTING RELAPSE IN SCHIZOPHRENIA PATIENTS” (Minerva Neurosciences, Inc., priority 2022, published 2023).

Test system: patients with negative symptoms of schizophrenia
Assay: Study #2 (MIN-101C07) Phase 3: PANSS-derived scores (NSFS, total, subscales, Marder factors)
Type: in vivo, human
Set-up: key to Change from Baseline LS Mean: NSFS (ITT) / Change from Baseline LS Mean: NSFS (mITT): NSFS total ranges 7 to 49; higher = more severe
Conditions: for Change from Baseline LS Mean: Marder's Anxiety/Depression Factor Score / Change from Baseline LS Mean: Marder's Disorganized Thought Factor Score / Change from Baseline LS Mean: Marder's Positive Symptoms Factor Score / Change from Baseline LS Mean: Marder's Uncontrolled Hostility/Excitement Factor Score / Change from Baseline LS Mean: NSFS (ITT) / Change from Baseline LS Mean: NSFS Emotional Experience Score / Change from Baseline LS Mean: NSFS Emotional Expression Score / Change from Baseline LS Mean: PANSS General Psychopathology Subscale / Change from Baseline LS Mean: PANSS Negative Symptoms Subscale / Change from Baseline LS Mean: PANSS Positive Symptoms Subscale / Change from Baseline LS Mean: PANSS Total Score / Effect Size (Cohen's d) vs Placebo: Marder's Anxiety/Depression Factor Score / Effect Size (Cohen's d) vs Placebo: Marder's Disorganized Thought Factor Score / Effect Size (Cohen's d) vs Placebo: Marder's Positive Symptoms Factor Score / Effect Size (Cohen's d) vs Placebo: Marder's Uncontrolled Hostility/Excitement Factor Score / Effect Size (Cohen's d) vs Placebo: NSFS (ITT) / Effect Size (Cohen's d) vs Placebo: NSFS Emotional Experience Score / Effect Size (Cohen's d) vs Placebo: NSFS Emotional Expression Score / Effect Size (Cohen's d) vs Placebo: PANSS General Psychopathology Subscale / Effect Size (Cohen's d) vs Placebo: PANSS Negative Symptoms Subscale / Effect Size (Cohen's d) vs Placebo: PANSS Positive Symptoms Subscale / Effect Size (Cohen's d) vs Placebo: PANSS Total Score / Effect size, change from Baseline in NSFS to Week 12: ITT; for Effect size, change from Baseline in NSFS to Week 12: 64 mg
Source text: “PANSS”, as used herein, refers to the positive and negative syndrome scale, which is used by physicians and clinicians to measure the severity of the symptoms in a schizophrenia patient. The scale is divided into three parts, a positive scale, which provides a “PANSS positive subscore”, a negative scale, which provides a “PANSS negative subscore”, and general psychopathology scale. The sum of these three parts provides a PANSS total score, which ranges from 30 to 210 (where higher scores indicate more severe symptoms). (Kay, S. R., et al. “The positive and negative syndrome scale (PANSS) for schizophrenia,” Schizophr Bulletin, 13(2), 261-276 (1987)).
As used herein, PANSS Marder's negative symptoms factor score (“NSFS”), refers to selection of seven of the PANSS items used by physicians and clinicians to measure the severity of the negative symptoms in a schizophrenia patient. (See Tables 5A and 5B.) The NSFS total score ranges from 7 to 49. (Marder, S. R. et al. “The effects of risperidone on the five dimensions of schizophrenia derived by factor analysis: combined results of the North American trials,” J Clin Psychiatry. 1997; 58:538-46.)
The PANSS was designed to be used in patients with schizophrenia to measure the overall severity of schizophrenic symptoms. The scale has been validated in different cultures and languages and is reliable and acceptable to regulatory health authorities as a primary scale to determine efficacy of intervention in schizophrenia. The name refers to the 2 types of symptoms in schizophrenia, as defined by the American Psychiatric Association: positive symptoms, which refer to an excess or distortion of normal functions (e.g., hallucinations and delusions), and negative symptoms, which represent a diminution or loss of normal functions.
The patient is rated from 1 to 7 on 30 different symptoms based on the interview as well as reports of family members or primary care hospital workers. The original PANSS included 3 groups of symptoms and subscale scores Positive, Negative, and General Psychopathology. Since the inception of PANSS, investigators have proposed additional grouping (structures) of PANSS such as the Marder structure (Marder, S. R. et al. “Issues and perspectives in designing clinical trials for negative symptoms in schizophrenia: consensus statements,” Schizophrenia Bulletin Open. 2020; 1(1). doi:10.1093/schizbullopen/sgz001) and the White structure (White, L. et al. “Empirical assessment of the factorial structure of clinical symptoms in schizophrenia”. Psychopathology. 1997; 30263-274).
The PANSS was assessed at the time points described in Table 4.
The PANSS-derived endpoints used in these studies and the integrated analyses are described in Table 5A and a summary of the individual PANSS items used by physicians and clinicians to measure the severity of the symptoms in a schizophrenia patient is provided in Table 5B. The scale is divided into three parts, a positive scale, which provides a “PANSS positive subscore”, a negative scale, which provides a “PANSS negative subscore”, and general psychopathology scale. The sum of these three parts provides a PANSS total score, which ranges from 30 to 210 (where higher scores indicate more severe symptoms). (See Kay, S. R., et al. “The positive and negative syndrome scale (PANSS) for schizophrenia,” Schizophr Bulletin, 13(2), 261-276 (1987) and Gopal, S., et al. “Improvement of Negative Symptoms in Schizophrenia with Paliperidone Palmitate 1-Month and 3-Month Long-Acting Injectables: Results from a Phase 3 Non-Inferiority Study” Neuropsychiatric Disease and Treatment, 681-690, DOI: 10.2147/NDT.5226296, both of which are incorporated by reference.)
Study #2 (also referred to as “MIN101C07”) was a Phase 3, randomized, DB, placebo-controlled, parallel-group 12-week study to evaluate the efficacy and safety of Roluperidone in patients ≥18 years to ≤55 years with negative symptoms of schizophrenia, followed by a 40-week OL extension. […]

1H-Isoindol-1-one,2-[ [1-[2-(4-fluorophenyl)-2-oxoethyl]-4-piperidinyl]methyl]-2,3-dihydro-, hydrochloride, hydrate (1:1:2) [Roluperidone]
Effect Size (Cohen's w) vs Placebo: 20% reduction in NSFS responders (32 mg QD, Week 12 DB): 0.05 | Effect Size (Cohen's w) vs Placebo: 30% reduction in NSFS responders (32 mg QD, Week 12 DB): 0.04 | Number of Patients with 20% reduction in NSFS at Week 12 (32 mg QD, Week 12 DB): 32/116 | Number of Patients with 30% reduction in NSFS at Week 12 (32 mg QD, Week 12 DB): 14/116 | Patients with 20% reduction in NSFS at Week 12 (%) (32 mg QD, Week 12 DB): (28%) | Patients with 30% reduction in NSFS at Week 12 (%) (32 mg QD, Week 12 DB): (12%) | Change from Baseline LS Mean: Marder's Anxiety/Depression Factor Score (32 mg QD, Week 12 DB): −0.6 | Change from Baseline LS Mean: Marder's Disorganized Thought Factor Score (32 mg QD, Week 12 DB): −1.6 | Change from Baseline LS Mean: Marder's Positive Symptoms Factor Score (32 mg QD, Week 12 DB): −1.3 | Change from Baseline LS Mean: Marder's Uncontrolled Hostility/Excitement Factor Score (32 mg QD, Week 12 DB): 0.3 | Change from Baseline LS Mean: NSFS (ITT) (32 mg QD, Week 12 DB): −4.0 | Change from Baseline LS Mean: NSFS Emotional Experience Score (32 mg QD, Week 12 DB): −1.5 | Change from Baseline LS Mean: NSFS Emotional Expression Score (32 mg QD, Week 12 DB): −2.6 | Change from Baseline LS Mean: PANSS General Psychopathology Subscale (32 mg QD, Week 12 DB): −2.8 | Change from Baseline LS Mean: PANSS Negative Symptoms Subscale (32 mg QD, Week 12 DB): −4.2 | Change from Baseline LS Mean: PANSS Positive Symptoms Subscale (32 mg QD, Week 12 DB): −0.3 | Change from Baseline LS Mean: PANSS Total Score (32 mg QD, Week 12 DB): −7.1 | Effect Size (Cohen's d) vs Placebo: Marder's Anxiety/Depression Factor Score (32 mg QD, Week 12 DB): 0.05 | Effect Size (Cohen's d) vs Placebo: Marder's Disorganized Thought Factor Score (32 mg QD, Week 12 DB): 0.15 | Effect Size (Cohen's d) vs Placebo: Marder's Positive Symptoms Factor Score (32 mg QD, Week 12 DB): 0.14 | Effect Size (Cohen's d) vs Placebo: Marder's Uncontrolled Hostility/Excitement Factor Score (32 mg QD, Week 12 DB): −0.05 | Effect Size (Cohen's d) vs Placebo: NSFS (ITT) (32 mg QD, Week 12 DB): 0.13 | Effect Size (Cohen's d) vs Placebo: NSFS Emotional Experience Score (32 mg QD, Week 12 DB): 0.11 | Effect Size (Cohen's d) vs Placebo: NSFS Emotional Expression Score (32 mg QD, Week 12 DB): 0.17 | Effect Size (Cohen's d) vs Placebo: PANSS General Psychopathology Subscale (32 mg QD, Week 12 DB): 0.22 | Effect Size (Cohen's d) vs Placebo: PANSS Negative Symptoms Subscale (32 mg QD, Week 12 DB): 0.10 | Effect Size (Cohen's d) vs Placebo: PANSS Positive Symptoms Subscale (32 mg QD, Week 12 DB): 0.04 | Effect Size (Cohen's d) vs Placebo: PANSS Total Score (32 mg QD, Week 12 DB): 0.17 | Change from Baseline LS Mean: NSFS (mITT) (32 mg QD, Week 12 DB): −4.0 | Effect Size (Cohen's d) vs Placebo: NSFS (mITT) (32 mg QD, Week 12 DB): 0.13 | Effect Size (Cohen's w) vs Placebo: 20% reduction in NSFS responders (64 mg QD, Week 12 DB): 0.17 | Effect Size (Cohen's w) vs Placebo: 30% reduction in NSFS responders (64 mg QD, Week 12 DB): 0.09 | Number of Patients with 20% reduction in NSFS at Week 12 (64 mg QD, Week 12 DB): 48/122 | Number of Patients with 30% reduction in NSFS at Week 12 (64 mg QD, Week 12 DB): 24/122 | Change from Baseline LS Mean: Marder's Anxiety/Depression Factor Score (64 mg QD, Week 12 DB): −0.7 | Change from Baseline LS Mean: Marder's Disorganized Thought Factor Score (64 mg QD, Week 12 DB): −1.4 | Change from Baseline LS Mean: Marder's Positive Symptoms Factor Score (64 mg QD, Week 12 DB): −1.6 | Change from Baseline LS Mean: Marder's Uncontrolled Hostility/Excitement Factor Score (64 mg QD, Week 12 DB): 0.5 | Change from Baseline LS Mean: NSFS (ITT) (64 mg QD, Week 12 DB): −4.3 | Change from Baseline LS Mean: NSFS Emotional Experience Score (64 mg QD, Week 12 DB): −1.8 | Change from Baseline LS Mean: NSFS Emotional Expression Score (64 mg QD, Week 12 DB): −2.6 | Change from Baseline LS Mean: PANSS General Psychopathology Subscale (64 mg QD, Week 12 DB): −2.3 | Change from Baseline LS Mean: PANSS Negative Symptoms Subscale (64 mg QD, Week 12 DB): −4.7 | Change from Baseline LS Mean: PANSS Positive Symptoms Subscale (64 mg QD, Week 12 DB): −0.4 | Change from Baseline LS Mean: PANSS Total Score (64 mg QD, Week 12 DB): −7.4 | Effect Size (Cohen's d) vs Placebo: Marder's Anxiety/Depression Factor Score (64 mg QD, Week 12 DB): 0.09 | Effect Size (Cohen's d) vs Placebo: Marder's Disorganized Thought Factor Score (64 mg QD, Week 12 DB): 0.07 | Effect Size (Cohen's d) vs Placebo: Marder's Positive Symptoms Factor Score (64 mg QD, Week 12 DB): 0.24 | Effect Size (Cohen's d) vs Placebo: Marder's Uncontrolled Hostility/Excitement Factor Score (64 mg QD, Week 12 DB): −0.15 | Effect Size (Cohen's d) vs Placebo: NSFS (ITT) (64 mg QD, Week 12 DB): 0.21 | Effect Size (Cohen's d) vs Placebo: NSFS Emotional Experience Score (64 mg QD, Week 12 DB): 0.28 | Effect Size (Cohen's d) vs Placebo: NSFS Emotional Expression Score (64 mg QD, Week 12 DB): 0.17 | Effect Size (Cohen's d) vs Placebo: PANSS General Psychopathology Subscale (64 mg QD, Week 12 DB): 0.12 | Effect Size (Cohen's d) vs Placebo: PANSS Negative Symptoms Subscale (64 mg QD, Week 12 DB): 0.23 | Effect Size (Cohen's d) vs Placebo: PANSS Positive Symptoms Subscale (64 mg QD, Week 12 DB): 0.07 | Effect Size (Cohen's d) vs Placebo: PANSS Total Score (64 mg QD, Week 12 DB): 0.20 | Change from Baseline LS Mean: NSFS (mITT) (64 mg QD, Week 12 DB): −4.5 | Effect Size (Cohen's d) vs Placebo: NSFS (mITT) (64 mg QD, Week 12 DB): 0.26 | Effect size, change from Baseline in NSFS to Week 12 (US sites subgroup): 0.32 | Effect size, change from Baseline in NSFS to Week 12 (non-US sites subgroup): 0.20 | NSFS score, course in OL period (all treatment groups, OL period to Week 52): continued to improve
